Source: US6838090B2, “Water-insoluble drug delivery system” (priority 1998, dated 2005)

Experiments:
HSP90 = conditions: 40 mg/kg i.v. single dose; 48-hours and 72-hours after administration
HSP70 = HSP70 level in tumor tissue by western blot analysis; format: in vivo, SCID mice bearing human breast cancer xenografts; conditions: 40 mg/kg i.v. single dose
p185 = p185 expression in xenografts by western blot analysis; format: in vivo, SCID mice bearing human breast cancer xenografts; conditions: 40 mg/kg i.v. single dose

concentration in tumor tissue (mouse, in vivo, iv, 40 mg/kg) | time remaining detectable in tumor tissue after administration (mouse, in vivo, iv, 40 mg/kg) | Compound | HSP90 concentration in tumor tissue of treated vs untreated mice (HSP90) | HSP70 concentration in tumor tissue of treated vs untreated mice (HSP70; 4-hours and 7-hours after administration) | HSP70 concentration in tumor tissue of treated vs untreated mice (HSP70; 48-hours and 72-hours after administration) | increase of p185 expression in xenografts over untreated mice (p185; 2-hours after administration) | p185 expression in xenografts below control levels (p185; 7-hours, 24-hours and 48-hours after administration) | concentration in normal tissues (single intravenous dose of 40 mg/kg, SCID mice, 7-hours post-administration, HPLC)
0.5 to 1 µg/g | more than 48 hours | CO[C@H]1C=C/C=C(\C)C(=O)NC2=CC(=O)C(N)=C(C[C@@H](C)C[C@H](OC)[C@H](O)[C@@H](C)/C=C(\C)[C@@H]1OC(N)=O)C2=O (stereo in doubt) [Example 17-AG] |  |  |  |  |  | 
 |  | C=CCNC1=C2C[C@@H](C)C[C@H](OC)[C@H](O)[C@@H](C)/C=C(\C)[C@H](OC(N)=O)[C@@H](OC)/C=C\C=C(/C)C(=O)NC(=CC1=O)C2=O [Example 17-AAG, 17-allylaminogeldanamycin] | elevated | lower | elevated | 2 fold | 30% | below detection levels
